Test results from paper PMC10503797, “Allosteric modulator potentiates β2AR agonist–promoted bronchoprotection in asthma models” (The Journal of Clinical Investigation, 2023).
Values joined by “and” are separate entries in the source; they are usually repeats but may differ in a detail not shown here. Equal values may be shown once.

What was measured:
[1] = system: lung slices obtained from ovalbumin-sensitized guinea pigs; experiment: Ovalbumin-induced airway constriction in lung slices from ovalbumin-sensitized guinea pigs; format: cell-based, guinea pig; settings: 1 µM Fenoterol, Exp1-5
Source text: All curve fits were generated using the software program GraphPad Prism. Data are represented as mean ± SEM of 4–5 guinea pigs (see Table 2 for statistical analyses).
Outbred, male, specified pathogen-free Dunkin Hartley guinea pigs (Charles River Laboratory) weighing 200 to 400 g were used. The animals were housed in pairs under a 12-hour light/dark cycle in a temperature- and humidity-controlled room with food and tap water ad libitum. For studies in the guinea pig model of allergic asthma, animals were actively IgE-sensitized to ovalbumin by injecting a suspension containing 100 μg/mL ovalbumin and 100 mg/mL Al(OH)3 in saline. Each animal was injected with 1.0 mL of suspension: 0.5 mL was injected i.p. and 0.5 mL was divided over 7 s.c. sites close to lymph nodes in the neck, paws, and lumbar regions ([24]). Animals were euthanized at least 4 weeks after sensitization.
Precision-cut lung slices were prepared as described previously ([61], [62]). A 3% solution of low melting-point agarose (Gerbu Biotechnik GmbH) in ultrapure water was prepared by heating it a microwave until fully dissolved. […] After filling, the lungs were covered with ice for 30 minutes to solidify the agarose for slicing. […] Lung slices were cut at a thickness of 500 μm and washed several times with slicing buffer to remove debris and washout the isoproterenol. Slices were incubated overnight in a 60 mm dish in sterile incubation buffer: MEM composed of lung slice buffer supplemented with 0.5 mM sodium pyruvate, 1 mM glutamine (Gibco), MEM-amino acids mixture (1:50), MEM-vitamins mixture (1:100; Gibco), and penicillin-streptomycin (1:100; Gibco), pH = 7.2, at 37°C in a CO2- and humidity-controlled atmosphere.
After washing the slices in medium, individual guinea pig lung slices were mechanically maintained with a Teflon ring with an inner diameter of 7 mm and covered with 1 mL of incubation buffer. […] Image acquisition software (NIS-Elements, Nikon) was used to quantify airway luminal area. Images of the airways were acquired every 2 seconds during the whole course of the experiment, starting 2 minutes before the addition of any agent to allow for baseline measurements of the airway caliber. For each methacholine or ovalbumin concentration, the maximal airway constriction was expressed as percentage of the initial (baseline) airway luminal area and plotted against that concentration.

[2] = system: human lung slices; experiment: Methacholine-induced airway constriction in human lung slices; format: cell-based; settings: for MCh-induced airway constriction response (Figure 7): donor 1-4
Source text: All curve fits were generated using the software program GraphPad Prism. Data are represented as mean ± SEM of 4 human donors (see Table 3 for statistical analyses).
Precision-cut human lung slices were purchased from AnaBios and stored in a liquid nitrogen tank. Lung tissue was obtained postmortem and consent for research was obtained by AnaBios for all donors. Characteristics of the donors of the lung tissue are shown in Supplemental Table 2. Slices were rapidly thawed following instructions from AnaBios.
After washing, individual human lung slices were mechanically maintained with a Teflon ring with an inner diameter of 7 mm and covered with 1 mL of incubation buffer. […] Image acquisition software (NIS-Elements, Nikon) was used to quantify airway luminal area. […] Airway constriction in response to each methacholine concentration was expressed as percentage of the initial airway luminal area.

[3] = target: guinea pig β2AR (Cavia porcellus, UniProt Q8K4Z4); experiment: 125I-CYP radioligand competition binding, guinea pig β2AR; settings: DMSO, listed as FEN
Sequence of guinea pig β2AR (Q8K4Z4 whole entry): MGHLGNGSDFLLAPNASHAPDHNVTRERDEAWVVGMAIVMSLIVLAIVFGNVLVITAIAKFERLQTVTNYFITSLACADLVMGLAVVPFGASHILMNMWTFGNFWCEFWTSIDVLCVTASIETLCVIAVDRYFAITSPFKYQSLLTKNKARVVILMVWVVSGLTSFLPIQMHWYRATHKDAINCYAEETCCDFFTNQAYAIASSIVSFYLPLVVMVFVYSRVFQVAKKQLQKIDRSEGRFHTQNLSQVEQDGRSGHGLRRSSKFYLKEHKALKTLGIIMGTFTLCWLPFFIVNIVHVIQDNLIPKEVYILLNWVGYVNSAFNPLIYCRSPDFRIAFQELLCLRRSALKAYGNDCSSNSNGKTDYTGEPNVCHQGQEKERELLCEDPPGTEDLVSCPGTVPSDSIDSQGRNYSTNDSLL

CC(Cc1ccc(O)cc1)NCC(O)c1cc(O)cc(O)c1 (stereo not drawn) [Fenoterol, fenoterol]
OVA-induced airway constriction response (Figure 6) ([1]; [OVA] 100000 ng/ml): 91.8 and 92.1 and 100.5 and 99.1 and 87.0 | OVA-induced airway constriction response (Figure 6) ([1]; [OVA] 1000000 ng/ml): 92.1 and 93.3 and 97.5 and 83.9 | MCh-induced airway constriction response (Figure 7) ([2]; 1 µM Fenoterol, -Log [MCh] 3.5): 66.3 and 38.1 and 61.4 and 57.2 | MCh-induced airway constriction response (Figure 7) ([2]; 1 µM Fenoterol, -Log [MCh] 4): 66.7 and 40.2 and 56.4 and 59 | MCh-induced airway constriction response (Figure 7) ([2]; 1 µM Fenoterol, -Log [MCh] 4.5): 64.6 and 41.7 and 58.9 and 57.8 | MCh-induced airway constriction response (Figure 7) ([2]; 1 µM Fenoterol, -Log [MCh] 5): 64.0 and 44.2 and 53.4 and 60.0 | MCh-induced airway constriction response (Figure 7) ([2]; 1 µM Fenoterol, -Log [MCh] 5.5): 70.0 and 50.2 and 57.7 and 59.1 | MCh-induced airway constriction response (Figure 7) ([2]; 1 µM Fenoterol, -Log [MCh] 6): 78.6 and 52.9 and 60.3 and 62.9 | MCh-induced airway constriction response (Figure 7) ([2]; 1 µM Fenoterol, -Log [MCh] 6.5): 78.2 and 58.1 and 66.2 and 68.4 | MCh-induced airway constriction response (Figure 7) ([2]; 1 µM Fenoterol, -Log [MCh] 7): 83.5 and 66.4 and 73.5 and 75.0 | MCh-induced airway constriction response (Figure 7) ([2]; 1 µM Fenoterol, -Log [MCh] 7.5): 90.1 and 68.0 and 78.3 and 79.7 | MCh-induced airway constriction response (Figure 7) ([2]; 1 µM Fenoterol, -Log [MCh] 8): 97.8 and 78.9 and 83.6 and 92.0 | MCh-induced airway constriction response (Figure 7) ([2]; 1 µM Fenoterol, -Log [MCh] 8.5): 89.0 and 94.8 and 96.5 | MCh-induced airway constriction response (Figure 7) ([2]; 1 µM Fenoterol, -Log [MCh] 9): 100.2 and 93.5 and 97.1 and 98.8 | Airway luminal area at the highest methacholine concentration ([2]; 1 μM fenoterol): 55.7% ± 6.2% | MCh-induced airway constriction response (Figure 7) ([2]; 10 µM Fenoterol, -Log [MCh] 3.5): 79.8 and 72.5 and 79.3 and 86.4 | MCh-induced airway constriction response (Figure 7) ([2]; 10 µM Fenoterol, -Log [MCh] 4): 80.3 and 75.3 and 80 and 86.3 | MCh-induced airway constriction response (Figure 7) ([2]; 10 µM Fenoterol, -Log [MCh] 4.5): 83.8 and 75.6 and 80.1 and 86.9 | MCh-induced airway constriction response (Figure 7) ([2]; 10 µM Fenoterol, -Log [MCh] 5): 91.0 and 83.4 and 80.2 and 86.4 | MCh-induced airway constriction response (Figure 7) ([2]; 10 µM Fenoterol, -Log [MCh] 5.5): 98.1 and 86.0 and 82.0 and 87.9 | MCh-induced airway constriction response (Figure 7) ([2]; 10 µM Fenoterol, -Log [MCh] 6): 99.0 and 86.3 and 86.9 and 91.9 | MCh-induced airway constriction response (Figure 7) ([2]; 10 µM Fenoterol, -Log [MCh] 6.5): 99.5 and 90.2 and 90.4 and 97.1 | MCh-induced airway constriction response (Figure 7) ([2]; 10 µM Fenoterol, -Log [MCh] 7): 99.7 and 93.0 and 91.3 and 96.6 | MCh-induced airway constriction response (Figure 7) ([2]; 10 µM Fenoterol, -Log [MCh] 7.5): 94.8 and 96.0 and 99.4 | MCh-induced airway constriction response (Figure 7) ([2]; 10 µM Fenoterol, -Log [MCh] 8): 101.4 and 95.9 and 99.4 and 100.7 | MCh-induced airway constriction response (Figure 7) ([2]; 10 µM Fenoterol, -Log [MCh] 8.5): 103.2 and 98.6 and 100.6 and 95.6 | MCh-induced airway constriction response (Figure 7) ([2]; 10 µM Fenoterol, -Log [MCh] 9): 100.3 and 99.4 and 101.1 and 99.5 | Airway luminal area at the highest methacholine concentration ([2]; 10 μM fenoterol): 79.5% ± 2.8% | EC50 ([2]; Homo sapiens, read-out: MCh pD2, 10 μM Fenoterol (converted)): 1700 nM | 125I-CYP binding, FEN competition curve (Figure 4D) ([3]; Log [FEN] (M) -4.49485): 3.006 and 3.081 and 4.379 and 2.482 | 125I-CYP binding, FEN competition curve (Figure 4D) ([3]; Log [FEN] (M) -5.09691): 10.5632 and 11.6008 and 14.5744 and 11.1845 | 125I-CYP binding, FEN competition curve (Figure 4D) ([3]; Log [FEN] (M) -5.69897): 27.5943 and 31.6003 and 36.8549 and 31.4566 | 125I-CYP binding, FEN competition curve (Figure 4D) ([3]; Log [FEN] (M) -6.30103): 58.2352 and 64.6742 and 67.2527 and 62.2696 | 125I-CYP binding, FEN competition curve (Figure 4D) ([3]; Log [FEN] (M) -6.90309): 83.5341 and 84.3533 and 88.9652 and 87.8637 | 125I-CYP binding, FEN competition curve (Figure 4D) ([3]; Log [FEN] (M) -7.50515): 93.701 and 97.0547 and 97.6505 and 97.0492 | 125I-CYP binding, FEN competition curve (Figure 4D) ([3]; Log [FEN] (M) -8.10721): 100.713 and 99.5295 and 100.092 | 125I-CYP binding, FEN competition curve (Figure 4D) ([3]; Log [FEN] (M) -8.70927): 98.7203 and 100.799 and 100.482 | 125I-CYP binding, FEN competition curve (Figure 4D) ([3]; Log [FEN] (M) -9.31133): 101.392 and 100.992 and 100.128 | 125I-CYP binding, FEN competition curve (Figure 4D) ([3]; Log [FEN] (M) -9.91339): 99.9817 and 101.061 and 100.058 and 101.342
